In patent US20100240617A1, “BICYCLIC SPHINGOSINE 1-PHOSPHATE ANALOGS” (University of Virginia Patent Foundation, priority 2007, published 2010):

Test system: lymphocytes in blood
Assay: lymphopenia assay
Assay type: in vivo
Conditions: mice, 8 doses, 3 mice per dose
Protocol: Compounds (e.g., primary alcohols such as compound VIII) are dissolved in 2% hydroxypropyl beta-cyclodextrin and introduced into groups of mice by oral gavage at doses from 0.01, 1.0 and 10 mg/kg body weight. After 24 hours and 48 hours, the mice are lightly anesthetized and ca. 0.1 ml of blood is drawn from the orbital sinus. The number of lymphocytes (in thousands per microliter of blood; normal is 4-11) is determined using a Hemavet blood analyzer. There are three mice/group, the strain was mixed sv129×C57BL/6. Active compounds (e.g., compound VIII-C and compound VIII-D) are dissolved in acidified DMSO at 20 mM, and diluted 1:20 into 2% hydroxypropyl beta-cyclodextrin in water with mixing. […]

CCCCCCCCc1ccc2c(c1)CCC(C(N)(CO)CO)C2 (single isomer, unassigned; (-)) [VIII-B, (−)-2-Amino-2-(6-octyl-1,2,3,4-tetrahydro-naphthalen-2-yl)-propane-1,3-diol]
ED50 in the lymphopenia assay: 2 mg/kg

CCCCCCCCc1ccc2c(c1)CCC(C(N)(CO)CO)C2 (single isomer, unassigned; (+)) [VIII-A, (+)-2-Amino-2-(6-octyl-1,2,3,4-tetrahydro-naphthalen-2-yl)-propane-1,3-diol]
ED50 in the lymphopenia assay: 0.2 mg/kg
